The values that follow are results of earlier work, collected in patent US7074553B2, “Retrovirus associated with myelodysplastic syndromes and uses thereof” (Rush University Medical Center, priority 2000, dated 2006).

For the series, the system named is anemia and thrombocytopenia of MDS patients. As to conditions: administered as single agents.

On to “granulocyte-macrophage colony-stimulating factor [GM-CSF]”, for which the “improvement of the anemia and the thrombocytopenia” value is reported as “rarely improves”.

B1: G-CSF: colony-stimulating growth factor designed to stimulate proliferation of hematopoietic progenitors (protein, UniProt P09919 31-207, looked up)
Granulocyte …: TPLGPASSLPQSFLLKCLEQVRKIQGDGAALQEKLVSECATYKLCHPEELVLLGHSLGIPWAPLSSCPSQALQLAGCLSQLHSGLFLYQGLLQALEGISPELGPTLDTLQLDVADFATTIWQQMEELGMAPALQPTQGAMPAFASAFQRRAGGVLVASHLQSFLEVSYRVLRHLAQP
In the case of B1, the “improvement of the anemia and the thrombocytopenia” value was “rarely improves”.
